Reference: patent publication US20200326333A1, “DIAGNOSIS AND TREATMENT OF AUTOIMMUNE DISEASES” (OP-T LLC, priority 2019, published 2020)

What was measured:
[1] = tested on: integrins from CD4lo cells (CD4loCD40+; Th40); assay: KGYY15 immunoprecipitation with western blot, CD4lo cells; type: binding, mouse
Source text: (§1) FIG. 10A, FIG. 10B, FIG. 10C-1, FIG. 10C-2, FIG. 10D, FIG. 10E, FIG. 10F, FIG. 10G, FIG. 10H-1, FIG. 10H-2, FIG. 10I, FIG. 10J-1, FIG. 10J-2, and FIG. 10J-3 provide blots, tables, graphs, charts, and plots related to additional biomarkers, receptors, and peptides that may bind thereto. The blots of FIG. 10A, FIG. 10B, FIGS. 10C-1, 10C-2 and FIG. 10D provide immunoprecipitation results of western blots. […] FIG. 10E provides a table of when KGYY15 eluates from mouse PBMR, MHCII+, CD4hi or CD4lo cells in protein sequencing, for integrins and proteins listed in FIG. 10E. FIG. 10F provides results of a western blot when 3 different CD40 antibodies were used in immunoprecipitations on cells that had been incubated with mKGYY15-biotin prior to lysis. FIG. 10H-1 and FIG. 10H-2, FIG. 10I, and FIG. 10J-1, FIG. 10J-2, and FIG. 10J-3 provide additional binding tests and studies that were done regarding peptides of KGYY-4, KGYY-6, and KGYY6-Val.

[2] = tested on: integrins from CD4hi cells (CD4+CD40−); assay: KGYY15 immunoprecipitation with western blot, CD4hi cells; type: binding, mouse; settings: αL more prominently from autoimmune NOD and αD from control Balb/c cells
Source text: as §1

VLQWAKKGYYTMKSN [KGYY15, 15-mer CD154-derived peptide around the KGYY core]
β3 immunoprecipitation ([1]; cell population not stated): not β3
integrins immunoprecipitated from CD4lo cells ([1]; more prominently from autoimmune NOD cells than from control Balb/c cells): immunoprecipitated primarily αM, αD and β2
CD11a immunoprecipitation ([1]; several differentially glycosylated (presumably) bands): immunoprecipitated but only from NOD CD4lo cells
integrins immunoprecipitated from CD4hi cells [2]: immunoprecipitated primarily αL, αD and β2
